# Tested on: trypsin
# Test: Inhibition of trypsin-induced cleavage of fluorescent BODIPY FL casein (EnzChek protease assay kit)
# Format: biochemical
# From the text: The procedure of Example 1 was independently repeated using the procyanidin-containing grape seed extract and STI, respectively, at 0.1% concentration. In addition, the procedure of Example 1 was repeated on the five individual monomer units typically found in OPC, at up to three different concentration levels.
# [1] = Table 4, concentration (w/w) 0.1 %
# [2] = Table 4, concentration (w/w) 1 %
# [3] = Table 4, concentration (w/w) 2.5 %
Compound,% trypsin inhibition [1] [%],% trypsin inhibition [2] [%],% trypsin inhibition [3] [%],trypsin inhibition activity (in words) (at concentrations up to 0.1%),% trypsin inhibition (concentration 0.001 % (w/w)) [%],% trypsin inhibition (concentration 0.01 % (w/w)) [%],% trypsin inhibition (concentration 0.05 % (w/w)) [%]
Oc1cc(O)c2c(c1)OC(c1ccc(O)c(O)c1)C(O)C2 (racemic) [Catechin (+/−)],4.6,61,76,,,,
Oc1cc(O)c2c(c1)OC(c1ccc(O)c(O)c1)C(O)C2 (stereo not drawn) [Catechin (+)],11,72,89,,,,
Oc1cc(O)c2c(c1)O[C@@H](c1ccc(O)c(O)c1)[C@@H](O)C2 [Epicatechin (+)],22,,,,,,
Oc1cc(O)c2c(c1)O[C@H](c1ccc(O)c(O)c1)[C@H](O)C2 [Epicatechin (−)],,71,90,,,,
"O=C1O[C@H]([C@@H](O)CO)C(O)=C1O [Vit C, Vitamin C]",,,,no trypsin inhibition activity,−2,1,−12
Catechin (−),18,70,92,,,,
